From article PMC10551445, “Piperlongumine is a ligand for the orphan nuclear receptor 4A1 (NR4A1)” (Frontiers in Pharmacology, 2023) come the findings set out here.

The test has as its target orphan nuclear receptor 4A1 (NR4A1) (Homo sapiens, UniProt P22736). The experiment in a line: ITC with the NR4A1 LBD; also Trp fluorescence quenching (KD […]) and GAL4-NR4A1 reporter assay. The format is binding. A general note: In a reporter assay the amount or activity of a reporter protein is the signal.

pKd: −log10 of the molar value.

Sequence of orphan nuclear receptor 4A1 (NR4A1) (P22736 360-598 limits assumed): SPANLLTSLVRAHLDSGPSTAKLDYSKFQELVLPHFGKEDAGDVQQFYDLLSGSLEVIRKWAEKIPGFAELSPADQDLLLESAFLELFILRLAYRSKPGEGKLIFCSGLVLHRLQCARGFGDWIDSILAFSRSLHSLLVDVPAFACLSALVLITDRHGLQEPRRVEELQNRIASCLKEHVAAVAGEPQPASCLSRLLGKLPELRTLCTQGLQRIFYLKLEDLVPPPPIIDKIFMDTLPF

Regarding `COc1cc(/C=C/C(=O)N2CCC=CC2=O)cc(OC)c1OC` [piperlongumine], the pKd was 5.30.

As a reminder, the pKd is −log10 of the Kd, conventionally taken in molar units. The low end stands for a large Kd, the high end for a small Kd.
